Entries after “also recorded” stand apart in the source; their conditions may differ.
Columns and labels:
SCC12B2 cell line = assay: Organotypic 3D reconstructed skin culture, cell differentiation (marker staining); assay type: cell-based, human; settings: SCC12B2-derived 3D reconstructed skin; for effect on cell differentiation (staining for psoriasine and cytokeratin 10): 100 µM for 21 days, immunofluorescence; for effect on cell differentiation: result in words
endogenous RT activities = assay: Endogenous reverse transcriptase activity in extracts of ARV-treated 3D reconstructed skin (colorimetric Mn2+ and Mg2+ RT kit); assay type: cell-based, human; settings: Mn2+ and Mg2+ dependent; reconstructed skin from SCC12F2, SCC12B2 and primary keratinocytes; result in words
From the text: Endogenous RT activities are increased in the psoriatic lesion when compared to non lesional psoriatic skin or normal skin extracts. […] The origin and the nature of these proteins are unknown but considering that the disease is not transmissible horizontally they should be attributed to endogenous proteins. In fact several cellular proteins including telomerase, LINE ORF2 and RT from human endogenous retroviruses (HERV) harbour a reverse transcriptase activity. LINE ORF2 is a Mg^2+-dependent RT, like RTs of the HERVs belonging to the MMTV-like group. The MLV-like HERV group harbours a Mn^2+-dependent RT. Effects of ARV on these activities was assessed in 3D culture models: Various reconstructed skin were assessed for RT inhibition through RTI treatment. They were generated from SSC12F2 and SCC12B2 cell lines and from normal primary keratinocytes (KN).
Reverse transcriptase assay : Protein extracts were prepared by crushing the cryostat skin sections (100 µm) in liquid nitrogen, incubating in ice-cold lysis buffer (10 mM Tris-HCl pH 7.5, 1 mM MgCl2, 1 mM EDTA, 0.1 mM PMSF, 5 mM β-mercaptoethanol, 0.5 % CHAPS, 10 % glycerol, 1 % NP40) and then subjected to three freeze/thaw cycles (LN2/4°C). […] RT activities were quantified with colorimetric highly sensitive Mn^2+ and Mg^2+ RT kit (Cavidi, Uppsala, Sweden) according to the manufacturer's instructions. […]

keratinocytes [1] = assay: IL-6 secretion by keratinocytes upon RT induction, time course (protocol of figure 5); assay type: cell-based; settings: ARV after demethylating treatment; result in words
Procedure: (§1) • Figures 1A-C represent the expression of cytokeratin 10 on SCC12B2-derived 3D reconstructed skin detected by immunohistochemistry. • Figure 1A represents untreated SCC12B2-derived 3D reconstructed skin. • Figure 1B represents SCC12B2-derived 3D reconstructed skin treated by AZT (100 µM) for 21 days: • Figure 1C: represents SCC12B2-derived 3D reconstructed skin treated by efavirenz (100 µM) for 21 days. Arrow indicates cytokeratin 10 expression. • Figures 2A-D represent the expression of psoriasine on SCC12B2-derived 3D reconstructed skin detected by immunofluorescence. • Figure 2A represents untreated SCC12B2-derived 3D reconstructed skin. • Figure 2B represents SCC12B2-derived 3D reconstructed skin treated by AZT (100 µM) for 21 days: • Figure 2C represents SCC12B2-derived 3D reconstructed skin treated by Lamivudine (100 µM) for 21 days. • Figure 2D represents SCC12B2-derived 3D reconstructed skin treated by AZT (100 µM) and Lamivudine (100 µM) for 21 days. […]

keratinocytes [2] = assay: IL-6 production by keratinocytes, ARVs given concomitantly with stimulation of RT activity; assay type: cell-based; settings: ARV concomitant with treatment that stimulated RT activity; result in words
Procedure: as §1

keratinocytes [3] = assay: Cytokine production by keratinocytes after demethylating treatment (protocol of figure 5, Day 7); assay type: cell-based; settings: after demethylation treatment
Procedure: • Figures 1A-C represent the expression of cytokeratin 10 on SCC12B2-derived 3D reconstructed skin detected by immunohistochemistry. • Figure 1A represents untreated SCC12B2-derived 3D reconstructed skin. • Figure 1B represents SCC12B2-derived 3D reconstructed skin treated by AZT (100 µM) for 21 days: • Figure 1C: represents SCC12B2-derived 3D reconstructed skin treated by efavirenz (100 µM) for 21 days. Arrow indicates cytokeratin 10 expression. • Figures 2A-D represent the expression of psoriasine on SCC12B2-derived 3D reconstructed skin detected by immunofluorescence. • Figure 2A represents untreated SCC12B2-derived 3D reconstructed skin. • Figure 2B represents SCC12B2-derived 3D reconstructed skin treated by AZT (100 µM) for 21 days: • Figure 2C represents SCC12B2-derived 3D reconstructed skin treated by Lamivudine (100 µM) for 21 days. • Figure 2D represents SCC12B2-derived 3D reconstructed skin treated by AZT (100 µM) and Lamivudine (100 µM) for 21 days. White staining denoted psoriasine expression. • Figures 3A-D represent the expression of cytokeratin 10 on SCC12B2-derived 3D reconstructed skin detected by immunofluorescence. • Figure 3A. represents untreated SCC12B2-derived 3D reconstructed skin. • Figure 3B represents SCC12B2-derived 3D reconstructed skin treated by AZT (100 µM) for 21 days: • Figure 3C represents SCC12B2-derived 3D reconstructed skin treated by lamividune (100 µM) for 21 days; • Figure 3D represents SCC12B2-derived 3D reconstructed skin treated with a combination of AZT (100 µM) and lamivudine (100 µM). White staining denoted cytokeratin 10 expression. • Figure 4 represents a histogram showing the level of endogenous RT activity in 3D reconstructed skin from various cell lines: PC F2 (A), PC B2 (B) or PC KN (C). PC F2 were obtained from the SCC12F2 cell line; PC B2 from the SCC12B2 cell line and PC KN from primary cultured human keratinocytes. Treatment were either azidothymidine (AZT; 2.) or efavirenz (3.) compared to the control (untreated; 1.). • Figure 5 represents a fow chart of the different treatments that aim at mimicking the initiating events of the psoriatic lesions • Figure 6 represents a histogram showing the level of the indicated cytokine production by keratinocytes at Day 7 of the protocol described in figure 5. Data were normalized versus control condition (fold increase in arbitrary unit). 1: IL-17 A; 2: IFN-γ; 3: TNF-α, 4: IL-1 RA and 5: IP-10. White columns represent the expression level in control cells. Black columns represent the expression level in cells treated with deoxyuridine, Grey columns represent the expression level in cells treated with desoxyuridine and Eviplera®. Hatched columns represent the expression level in cells treated with desoxyuridine and rilpivirine. Columns with dots represent the expression level in cells treated with desoxyuridine and efavirenz. • Figure 7 represents a graph showing time course (D0: Day 0; D2: Day 2; D5: Day 5; D7: Day 7) of the level of IL-6 production (fold increase) by keratinocytes according to the protocol described in figure 5. The expression is normalized to control at the corresponding time point. Diamond shape = untreated cells; Filled square = demethylating treated cells; Open square = treated with AZT; Filled circle = treated with lamivudine; Open circle = treated with Eviplera®. • Figure 8 represents a graph showing effects of ARVs upon simultaneous stimulation of RT activities on the production of IL-6 by keratinocytes. Values are normalized versus control. Filled diamond shape = control; Filled square = treated with demethylating agent; Triangle = treated with demethylating agent + Eviplera®; open diamond shape = treated with demethylating agent + lamivudine; Open circle = treated with demethylating agent + AZT; Filled circle = treated with demethylating agent + AZT + Lamivudine. […]

Row | SMILES | effect on cell differentiation (staining for psoriasine and cytokeratin 10) (SCC12B2 cell line) | effect on cell differentiation (SCC12B2 cell line) | endogenous RT activities (endogenous RT activities) | effect on the synthesis of IL-6 (keratinocytes [1]) | effect on the synthesis of IL-6 (keratinocytes [2]) | IFN-α expression decreased (keratinocytes [3]) | IP10 expression decreased (keratinocytes [3]) | also measured
1 | Cc1cn([C@H]2C[C@H](N=[N+]=[N-])[C@@H](CO)O2)c(=O)[nH]c1=O [AZT, Zidovudine] | Neither AZT, nor lamivudine has effect | no effect; also recorded: no or minor effects | less effective | neither AZT nor lamivudine have effect | no effect | – | – | –
2 | O=C1Nc2ccc(Cl)cc2[C@@](C#CC2CC2)(C(F)(F)F)O1 [Efavirenz] | – | reverses the "tumoral" phenotype of SCC12B2 cell line | decreased endogenous RT activities of both type | – | – | more than 50% | more than 50% | effect on cell differentiation (SCC12B2 cell line; listed as efavirenz): impact cell differentiation; IL17A expression (keratinocytes [3]): undetectable; TNF-α production (keratinocytes [3]): potent induction
3 | Cc1cc(C#N)cc(C)c1Oc1nc(Nc2ccc(C#N)cc2)nc(N)c1Br [Etravirine] | – | no or minor effects | – | – | – | – | – | –
4 | Cc1cc(/C=C/C#N)cc(C)c1Nc1ccnc(Nc2ccc(C#N)cc2)n1 [Rilpivirine] | – | – | – | – | – | more than 50% | more than 50% | –
5 | C[C@H](Cn1cnc2c(N)ncnc21)OCP(=O)(O)O [Tenofovir] | – | impact cell differentiation | – | – | – | – | – | –
6 | Nc1ccn([C@H]2CS[C@@H](CO)O2)c(=O)n1 [lamivudine, 2',3'-dideoxy-3'-thiacytidine] | Neither AZT, nor lamivudine has effect | – | – | neither AZT nor lamivudine have effect | no effect | – | – | –

— patent publication EP2965760A1, “Combination of antiretroviral agents for use in the prevention or treatment of chronic inflammatory diseases” (Université de Montpellier, priority 2014, dated 2016)
